From patent publication US20250099491A1, “PREVENTION OR TREATMENT OF CARDIOVASCULAR DISEASES WITH HIGH PENETRATION PRODRUGS OF ASPIRIN AND OTHER NSAIDS” (Techfields Inc., priority 2022, published 2025)

Key:
[1] = following topical spray
Procedure: Each cohort began with single dose administration of study drug on Day 1 of the cohort's study schedule.
For single dose PK analysis, serial blood samples were collected following the Day 1 dose at the following time points: 0 (pre-dose), 0.25, 0.5, 0.75, 1, 1.5, 2, 2.5, 3, 4, 5, 6, 8, 10, 12, 18, 24, 48, 72, 96 and 120 hours post-dose. For multiple-dose PK analysis, serial blood samples were collected following the last morning dose on Day 12 according to the same schedule used for the single-dose PK analysis. In addition, daily trough PK samples were collected prior to the morning dose on Days 7 through 11.

[2] = test system: rats with acute ischemia induced by Middle Cerebral Artery Occlusion (MCAO); test: Example 14: acute ischemia induced by middle cerebral artery occlusion (MCAO) in rats; format: in vivo, rat; conditions: for mortalities: deaths of animals in group; for infarct volume: Day 14 after MCAO, TTC staining, mean±SEM
[3] = test system: middle cerebral artery (MCA) thrombosis model of monkeys; test: Example 19: middle cerebral artery (MCA) thrombosis model of monkeys; conditions: for infarct volume: Day 28 after MCA thrombosis
Procedure: Aspirin was administered orally by gavage using a nasal catheter with a disposal syringe. The catheter was inserted into the stomach through the mouth. The treatment was once per day of MCA thrombosis (day 0), twice per day for 27 days.
The monkeys that had been fastened for at least 12 h were anesthetized with intramuscular administration of ketamine hydrochloride (20 mg/kg), and placed on an operation-bed. Anesthesia was continued with 1.0% isoflurane in O2 gas until 30 min. The inhalation anesthesia was performed with anesthesia machines (SN23402, Hallowell engineering and manufacturing corporation, USA) and respirators (SN23402, Hallowell engineering and manufacturing corporation, USA), and placed on an operation-bed. During anesthesia, body temperature of the animals (rectal temperature) was controlled between 37.0±0.5° C. by heating mattresses (XMTA-7000, Delixi Electric., Ltd.).
Under anesthesia, the left eye was enucleated using a bipolar coagulation device (Valleylab Force 1C, USA). A craniotomy was then performed supralaterally to the left side of the optic nerve. The next day animals were anesthetized with ketamine hydrochloride (20 mg/kg) and the dura and subarachnoid membrane were opened. MCA thrombosis was induced by photochemical reaction. The proximal part of the main MCA trunk. was irradiated with green light wave length 532 nm achieved by use of a xenon lamp (GL532T3-100FC, Shanghai Laser& Optics Century Col., Ltd.). The irradiation was directed by a 3-mm diameteroptic fiber mounted on a micromanipulator. Irradiation was started and rose bengal 20 mg/kg was injected intravenously. Photoirradiation was continued for a 30 min. The dura was then covered with a moist gelatin sponge.
Neurological deficits (see Table 3) were assessed 1, 3, 5, 7, 14 and 28 days after the onset of MCA thrombosis (day 0) in a blind manner. The neurological deficits was scored on consciousness, sensory system, motor system and skeletal muscle coordination, and the total neurological deficit score was calculated by summing the scores of consciousness, sensory system, motor system and skeletal muscle coordination.
The survival monkeys were deeply anesthetized with pentobarbital sodium (35 mg/kg, i.v.) 28 days after the onset of MCA thrombosis. After cutting the atriums of heart, 200 mL of heparinized physiological saline (10 U/mL) was allowed to perfuse the brain via the common carotid arteries, and followed by perfusion of 200 mL of 10% formalin neutral buffer solution. The whole brain was removed, and then was put in pathology sample preservation packs containing 10% formalin neutral buffer solution. For each brain sample, the coronal sections (thickness: 7-8 μm) per site were prepared at 10 sites at 4-mm intervals. Slices per site were each stained with H & E reagent.
Measurement of cerebral infarct lesions was carried out in a blind manner. The infarct lesions in the ischemic side are defined as a necrotic portion compared with that in the contralateral side. The infarcted area of left cerebral hemisphere (A) in the cross-sections was traced and measured using a computerized image analysis system (image J).
When the infarct size of 2 serial section was made into D and D′, the infarcted volume using the thickness (4 mm) of a section is measured in the following formula:
Total infarcted volume is calculated by summing the infarcted volume of the 10 serial sections.

[4] = test system: rats, minipigs, rabbits, guinea pigs, Ames, CHO-WBL Cells; test: Nonclinical pharmacology and toxicology battery; format: in vivo; conditions: battery of GLP dermal toxicity, genotoxicity, safety pharmacology, irritation and sensitization studies
Procedure: A battery of pharmacology and toxicology studies were conducted to support early clinical trials, including a GLP acute dermal maximum tolerated dose study in rats, a GLP acute dermal maximum tolerated dose study in minipigs, a 28-day GLP repeated dermal dose toxicity and toxicokinetics study in rats with 14-day recovery, a 28-day GLP repeated dermal dose toxicity and toxicokinetics study in minipigs with 14-day recovery, a GLP bacterial reverse mutation assay (Ames), a GLP in vitro chromosome aberration assay in CHO-WBL Cells, a GLP in vivo bone marrow micronucleus assay in rats, a behavioral effects in rats using the functional observational battery, a rat respiratory safety pharmacology study, a cardiovascular telemetry study in the unrestrained conscious minipigs, a skin irritation study in rabbits, and a sensitization test in guinea pigs.

[5] = high dose 30 mg/kg/time transdermal, twice a day
[6] = low dose 15 mg/kg/time transdermal, twice a day

SMILES: CCN(CC)CCOC(=O)c1ccccc1OC(C)=O.Cl [Compound-1]
- converted to salicylic acid [1]: ≥ 99%
- mortalities ([2]; high dose 60 mg/kg topical bid): 0 of 25
- infarct volume ([2]; low dose 15 mg/kg topical bid 14 days): 32.07%±2.061
- neuroprotective effect on brain ischemic injury ([2]; low, middle and high dose groups compared to vehicle group): good neuroprotective effect
- neurological deficit scores ([2]; low, middle and high dose groups vs vehicle group): show differences significantly
- body weight ([2]; low, middle and high dose groups, Day 5-14, vs vehicle group by t-test): increased
- infarct volume ([2]; middle dose 30 mg/kg topical bid 14 days): 27.11%±1.658
- mortalities ([2]; middle dose 30 mg/kg topical bid): 0 of 25
- infarct volume [3, 5]: 988 mm^3
- infarct volume [3, 6]: 945 mm^3
- Mortality rate [3, 5]: 0/7
- gemistocytic astrocytes in the penumbra area [3, 5]: many gemistocytic astrocytes
- liquefaction in the infarct area (histopathology) [3, 5]: slight
- Mortality rate [3, 6]: 0/5
- liquefaction in the infarct area (histopathology) [3, 6]: moderate
- neurologic deficits ([3]; low dose (15 mg/kg) and high dose (30 mg/kg) groups, transdermal twice a day): dose-dependently improved
- delayed neuronal death in the distant area ([3]; transdermal treatment groups): slightly
- nonclinical safety and tolerability [4]: safe and generally well tolerated
